# Target: Recombinant human Mat2a (Homo sapiens (Human), UniProt P31153)
# Assay: Determination of Mat2A activity: 384 well format absorbance-based Mat2A inhibition assay
# Assay type: biochemical
# Settings: 12.5 nM Mat2A, 100 μM ATP and Methionine, 2% DMSO, 120 minutes at RT, Biomol Green, absorbance at 635 nm
# Method: Determination of Mat2A Activity
# Measurement of Mat2A inhibition is performed in 384 well format absorbance-based assay.
# Recombinant human Mat2a (12.5 nM) and serial diluted compounds in DMSO (range of concentrations from 10 μM to […]) or controls (DMSO) are incubated for 15 minutes at room temperature (RT) in assay buffer containing 50 mM HEPES pH 7.5, 50 mM KCl, 50 mM MgCl2, 0.01% Tween 20 and 10 mM DTT. The reaction is initiated by the addition of the combined substrates ATP and Methionine, each at a final concentration of 100 μM. Final assay condition are 12.5 nM Mat2A, 100 μM ATP and Methionine Substrates and 2% DMSO. After 120 minutes of incubation at RT, the reaction is stopped by the addition of Biomol Green. The absorbance signal is measured at λ=635 nm with a multiplate reader (BMG Pherastar reader or equivalent) after 30 min of equilibration at RT.
# Chain of Recombinant human Mat2a (P31153 whole entry): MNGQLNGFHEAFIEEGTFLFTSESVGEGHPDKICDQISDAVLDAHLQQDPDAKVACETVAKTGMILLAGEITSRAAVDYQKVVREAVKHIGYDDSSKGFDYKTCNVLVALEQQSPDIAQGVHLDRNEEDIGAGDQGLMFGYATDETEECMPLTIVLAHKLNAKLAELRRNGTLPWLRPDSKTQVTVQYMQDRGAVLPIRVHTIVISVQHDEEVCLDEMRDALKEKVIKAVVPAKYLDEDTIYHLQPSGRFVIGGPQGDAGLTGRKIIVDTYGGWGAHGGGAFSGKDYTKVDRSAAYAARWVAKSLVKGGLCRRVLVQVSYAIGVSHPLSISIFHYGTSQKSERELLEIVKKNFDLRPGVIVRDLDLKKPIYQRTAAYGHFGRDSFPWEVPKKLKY
row,IC50,Structure (SMILES)
1,26 nM,"COc1ncccc1C(=O)n1nc(N)c2ccc(C3CC3)nc21 [Example 75, (3-amino-6-cyclopropyl-1H-pyrazolo[3,4-b]pyridin-1-yl)(2-methoxypyridin-3-yl)methanone]"
2,17 nM,"Nc1nn(C(=O)c2cccnc2Cl)c2nc(C3CC3)ccc12 [Example 76, (3-amino-6-cyclopropyl-1H-pyrazolo[3,4-b]pyridin-1-yl)(2-chloropyridin-3-yl)methanone]"
3,31 nM,"Nc1nn(C(=O)c2cccnc2C(F)(F)F)c2nc(C3CC3)ccc12 [Example 77, (3-amino-6-cyclopropyl-1H-pyrazolo[3,4-b]pyridin-1-yl)(2-(trifluoromethyl)pyridin-3-yl)methanone]"
4,200 nM,"Cc1nnccc1C(=O)n1nc(N)c2ccc(C3CC3)nc21 [Example 78, (3-amino-6-cyclopropyl-1H-pyrazolo[3,4-b]pyridin-1-yl)(3-methylpyridazin-4-yl)methanone]"
5,150 nM,"Cc1nscc1C(=O)n1nc(N)c2ccc(C3CC3)nc21 [Example 79, (3-amino-6-cyclopropyl-1H-pyrazolo[3,4-b]pyridin-1-yl)(3-methylisothiazol-4-yl)methanone]"

# Reference: patent US20230382911A1 (Hoffmann-La Roche Inc., priority 2021, published 2023)
